Laboratory results: patent US20150045284A1 (priority 2011, published 2015)

Tests used:
[1] = biological target: LpCopA (Legionella pneumophila Cu^+ transporting P-type ATPase) (Legionella pneumophila subsp. pneumophila, UniProt Q5ZWR1); conditions: for Measured LpCopA activity in the presence of different ions (relative ATPase activity): 100 μM CuCl2 or AgNo3, 1 mg/mL E. coli total lipid extract, 20 mM cysteine, TTM background subtracted
[2] = biological target: HMBD-truncated LpCopA (Legionella pneumophila subsp. pneumophila, UniProt Q5ZWR1)
Chain of HMBD-truncated LpCopA (Q5ZWR1 75-736 limits assumed): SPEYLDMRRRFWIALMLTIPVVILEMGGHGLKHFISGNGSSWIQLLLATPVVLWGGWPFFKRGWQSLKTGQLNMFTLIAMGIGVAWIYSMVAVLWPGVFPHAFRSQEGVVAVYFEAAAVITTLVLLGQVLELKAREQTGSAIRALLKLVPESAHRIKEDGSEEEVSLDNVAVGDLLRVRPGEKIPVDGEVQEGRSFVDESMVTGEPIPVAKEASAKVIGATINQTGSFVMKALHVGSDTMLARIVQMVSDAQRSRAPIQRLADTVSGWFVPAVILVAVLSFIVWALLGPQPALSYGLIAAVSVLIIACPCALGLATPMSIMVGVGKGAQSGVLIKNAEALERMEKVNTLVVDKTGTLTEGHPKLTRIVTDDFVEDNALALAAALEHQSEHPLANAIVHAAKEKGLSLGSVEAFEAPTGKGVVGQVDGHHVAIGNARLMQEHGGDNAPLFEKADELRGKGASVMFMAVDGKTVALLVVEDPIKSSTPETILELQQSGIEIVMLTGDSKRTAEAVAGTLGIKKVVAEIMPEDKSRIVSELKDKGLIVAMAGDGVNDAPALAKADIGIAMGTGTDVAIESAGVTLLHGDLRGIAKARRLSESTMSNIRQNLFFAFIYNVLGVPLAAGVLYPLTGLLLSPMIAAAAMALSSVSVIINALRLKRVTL

Chain of LpCopA (Legionella pneumophila Cu^+ transporting P-type ATPase) (Q5ZWR1 whole entry, looked up, the tested form may be a part): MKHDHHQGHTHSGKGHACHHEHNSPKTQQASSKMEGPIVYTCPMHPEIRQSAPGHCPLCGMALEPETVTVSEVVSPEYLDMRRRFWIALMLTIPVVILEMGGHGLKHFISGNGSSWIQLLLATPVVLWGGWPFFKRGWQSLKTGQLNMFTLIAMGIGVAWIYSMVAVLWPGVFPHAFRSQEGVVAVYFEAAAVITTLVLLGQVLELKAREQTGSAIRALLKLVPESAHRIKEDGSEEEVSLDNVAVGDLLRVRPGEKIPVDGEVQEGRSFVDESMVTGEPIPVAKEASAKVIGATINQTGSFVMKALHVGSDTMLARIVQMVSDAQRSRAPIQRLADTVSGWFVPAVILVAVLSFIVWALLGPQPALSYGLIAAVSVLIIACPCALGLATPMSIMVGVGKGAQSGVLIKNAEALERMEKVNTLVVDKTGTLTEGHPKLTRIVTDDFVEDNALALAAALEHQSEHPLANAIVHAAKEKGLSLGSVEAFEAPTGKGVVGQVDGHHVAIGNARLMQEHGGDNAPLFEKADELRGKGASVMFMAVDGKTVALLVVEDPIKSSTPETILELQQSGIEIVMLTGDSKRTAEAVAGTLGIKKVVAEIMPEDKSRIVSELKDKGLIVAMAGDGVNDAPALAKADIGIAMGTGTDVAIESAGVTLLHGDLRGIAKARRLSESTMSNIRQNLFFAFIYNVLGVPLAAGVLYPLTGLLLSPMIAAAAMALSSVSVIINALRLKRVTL

Structure (SMILES) | Measured LpCopA activity in the presence of different ions (relative ATPase activity) [1] | CuCl2 concentration of optimum ATPase activity [2] | CuCl2 concentration of highest ATPase activity ([1]; full-length LpCopA, 10 nM to 10 mM CuCl2 incl. 10 μM TTM, appears inhibited above) [mM]
[Ag+] [Ag^+] | clearly stimulate ATPase activity |  | 
[Cl][Cu][Cl] [CuCl2] |  | about 1 mM | 1
[Cu+] [Cu^+] | clearly stimulate ATPase activity |  | 
